The values below come from patent US20200253979A1, “THERAPEUTIC METHODS RELATING TO HSP90 INHIBITORS” (AI Therapeutics, Inc., priority 2017, published 2020).

Like-named read-outs stand apart in the source and are kept apart here.

The subject of series [1] is MOLM-13 FLT3-ITD AML cell line. Nature of the series: Systemic survival xenograft study, MPC-0767 with 5′azacitidine. To be noted: single agents: MPC-0767 75 mg/kg p.o.; 5′azacitidine 2 mg/kg QD×4 i.p.; vs vehicle.
Description: A systemic survival xenograft study was performed using the MOLM-13 FLT3-ITD harboring AML cell line.
Before tumor cell inoculation, NOD/SCID mice were pre-treated for 2 days with a daily intraperitoneal injection of 100 mg/kg cyclophosphamide to facilitate engraftment of the human MOLM-13 tumor cells. After the injection of cyclophosphamide, the animals were allowed to recover for 24 hours prior to inoculation with human MOLM-13 tumor cells. Each mouse was then inoculated with 1×10^7 MOLM-13 cells in 100 μL PBS via intravenous tail vein injection. Mice were next randomized into 4 groups of 6 mice each. […] Viability and body weight loss were monitored daily.
The test system of a further series is MV-4-11 cells (FLT3-ITD). Nature of the series: CellTiter-Glo cell viability (single agent and combination). Type of series: cell-based. To be noted: MV-4-11, 72 hours, average CI. As for the experimental part:
(§1) Three cell lines which harbor FLT3-ITD were used for the drug combination studies (MV-4-11, MOLM-13, and MOLM-14).
(§2) Cells were treated with the drugs (single agent or combination) for 72 hours. Drug combination activity was determined by first measuring cell viability with CellTiter-Glo®, followed by the calculation of the EC50 corresponding to single agent activity, using the R DRC package (R Core Team, 2017). The combination index (CI) values were computed using the Chou-Talalay method (Chou T, Cancer Research., 2010 70(2): 440-6.), based on the viability of each drug alone and in combination, across all concentrations tested. In brief, CI was defined as: […]
(§3) Loss of function mutations of KDM6A are observed in FLT3-ITD AML (Garg et al., 2015 Blood 126 (22):2491-501). […] To therapeutically exploit this finding, we hypothesized that inhibiting EZH2, the histone H3K27 methyltransferase that functionally opposes KDM6A, would enhance sensitivity to MPC-0767. To test this hypothesis, a FLT3-ITD cell line (MV-4-11) was used and treated with either of the two clinical stage EZH2 inhibitors, EPZ-6438 and CPI-1205, at 8 different concentrations for 4 days. Following this time, cells were counted, reseeded and treated with 8 concentrations of EZH2 inhibitor alone, 8 concentrations of MPC-0767 alone, or the combination of the two (64 total combinations).
A general note: ATP-based viability assays read luminescence as a measure of living cells.

In another series the test system is MOLM-14 cells (FLT3-ITD). Described as above. Type of series: cell-based. To be noted: for combination index (CI) of AML drug in combination with MPC-0767: MOLM-14, 72 hours, average CI (* n=1); for IC50: Homo sapiens, MOLM-14, 72 h, 72 hours, read-out: EC50 (cell viability). As to the method: HS-5 is a human marrow stromal cell line that secretes various growth factors sufficient to support hematopoietic progenitor growth (Roecklein et al., Blood, 1995) which thus mimics stromal conditions.
as §1, §2, §3

The conditions of series [2]: cited from earlier work.
Another series relates to MOLM-13 cells (FLT3-ITD). Nature of the series: CellTiter-Glo cell viability (combination). Type of series: cell-based, human. To be noted: MOLM-13, 72 hours, average CI. As for the experimental part:
as §1, §2

The test system of the next series is MOLM-13-LUC cells. Description: CellTiter-Glo cell viability. Type of series: cell-based. To be noted: Homo sapiens, 72 hours. From the text:
(§4) In the clinic, tyrosine kinase inhibitors that target FLT3 initially show positive responses, but patients inevitably relapse due to the development of drug-resistance through various mechanisms, as discussed above.

The test system of series [3] is BaF3 cells harboring FLT3-ITD. Nature of the series: CellTiter-Glo cell viability. Type of series: cell-based, murine. To be noted: Mus musculus, 72 hours. As to the method: After this time cell viability was determined using CTG and EC50 values determined.
(§5) EC50 values were calculated using equation 1 (as described above).
BaF3 cells require the supplementation of IL-3 to activate the IL-3 receptor for growth. However, in BaF3 cells transfected with FLT3-ITD, cells no longer require IL3 as survival is solely driven by oncogenic FLT3 signaling.

Series [4] relates to MOLM-13-R-PKC412 (midostaurin-resistant) cells. Nature of the series: CellTiter-Glo cell viability. Type of series: cell-based, human.
Text: as §4

Series [5] has as its system BaF3 cells harboring FLT3-ITD F691L. Nature of the series: CellTiter-Glo cell viability. Type of series: cell-based, murine. As for the experimental part:
as §5

In series [6] the test system is phospho-ERK (pERK) in MOLM-13 cells. Description: Phospho-ERK level. Type of series: cell-based, human. To be noted: MPC-0767 800 nM, ATO 625 nM or combination, 24 hours. From the text: (§6) We next explored whether the synergistic activity of MPC-0767 and ATO was due to a more complete abrogation of FLT3-ITD oncogenic signaling. […] After this time cells were harvested for the assessment of cell surface FLT3 expression by flow cytometry. To additionally measure the effects of abrogating FLT3, we assessed phospho-ERK (pERK) and phospho-S6 (pS6), as these are two known downstream effectors.

The test system of series [7] is cell surface FLT3 in MOLM-13 cells. Description: Cell surface FLT3 by flow cytometry. Type of series: cell-based, human. To be noted: MOLM-13; MPC-0767 800 nM, ATO 625 nM or combination; 24 hours. As to the method: (§7) To determine whether MPC-0767 can promote the degradation of FLT3-ITD and abolish downstream signaling, MV-4-11 and MOLM-13 cells were treated with vehicle or MPC-0767 (1 μM) for 24 hours. Cells were harvested for flow cytometry to assess cell surface FLT3 protein abundance. In addition, the measurement of a key phosphorylation site of S6 (phospho-S6) was used as a marker for oncogenic FLT3-ITD signaling (Zimmerman et al., Blood. 2013 122(22): 3607-3615). Indeed, in both MV-4-11 and MOLM-13 cells treated with MPC-0767 there was a >65% reduction in cell surface FLT3 (FIGS. 10A and 10B, respectively) and >70% reduction in phospho-S6 (FIGS. 10C and 10D, respectively).
as §6
(In general: Flow cytometry measures light scatter and fluorescence of single cells or particles in a stream.)

For series [8], the system named is phospho-S6 in MOLM-13 cells. Description: Phospho-S6 by flow cytometry. Type of series: cell-based, human. To be noted: MOLM-13; MPC-0767 800 nM, ATO 625 nM or combination; 24 hours. As for the experimental part: as §7, §6
In series [9] the test system is PD-1+ Jurkat reporter cells with THP-1 AML cells. Description: Jurkat NFAT-luciferase reporter T cell activation with THP-1 cells. Type of series: cell-based. To be noted: THP-1 treated 24 hr with IFNγ 50 ng/ml; PD-L1 blocking antibody added. The text has this: The addition of antibodies that block the PD-1/PD-L1 pathway stimulate an increased T cell response in vitro, in pre-clinical animal models, and in cancer patients. This can lead to tumor regressions or tumor clearance in patients. To examine MPC-0767 effects on PD-L1 and T cell activation, we used a model system in which PD-1+ Jurkat T cells express luciferase under the control of the NFAT promoter (Promega, hereafter referred to Jurkat reporter cells). When T cells are stimulated through the T cell receptor (TCR), activation of the NFAT pathway drives expression of luciferase.
We next determined whether MPC-0767 reduction of PD-L1 could increase T cell stimulation similar to anti-PD-L1 blocking antibodies. THP-1 cells were treated overnight with IFNγ in the presence or absence of MPC-0767 (1 μM or 2 uM). THP-1 cells were washed and a portion saved for flow cytometry analysis of PD-L1 expression. The remaining cells were incubated with Jurkat reporter cells and anti-CD3 (10 ng/ml) for 6 hours.
(Reporter assays use an easily measured gene product as a stand-in for the process of interest.)

Setting [10] is: MOLM-14, stromal media (HS-5 conditioned).

Take `Nc1ncn([C@@H]2O[C@H](CO)[C@@H](O)[C@H]2O)c(=O)n1` [5′azacitidine, reference compound]: in series [1], the “increase in median survival” value is on record as 8 days.

As for `Nc1ccn([C@@H]2O[C@H](CO)[C@@H](O)[C@@H]2O)c(=O)n1` [Cytarabine, cytarabine], the “combination index (CI) of AML drug in combination with MPC-0767” value (shortened to “combination index (CI) of AML drug”) in the series on MV-4-11 cells (FLT3-ITD) is recorded as “CI = 0.8”; in the series on MOLM-14 cells (FLT3-ITD), “CI = 0.9*”.

Take `C[C@H](O)C(=O)N1CCC(CCn2c(Sc3cc4c(cc3Br)OCO4)nc3c(N)ncnc32)CC1` [MPC-3100, (2S)-1-[4-(2-{6-Amino-8-[(6-bromo-1,3-benzodioxol-5-yl)sulfanyl]-9H-purin-9-yl}ethyl)piperidin-1-yl]-2-hydroxypropan-1-one, reference compound]: the aqueous solubility entry in [2] was “poor solubility”.

As for `CNC(=O)c1cc(Oc2ccc(NC(=O)Nc3ccc(Cl)c(C(F)(F)F)c3)cc2)ccn1` [Sorafenib, sorafenib], in the series on MV-4-11 cells (FLT3-ITD), the “combination index (CI) of AML drug” value is reported as “CI = 0.8”.

Regarding `CC1(C)CCC(CN2CCN(c3ccc(C(=O)NS(=O)(=O)c4ccc(NCC5CCOCC5)c([N+](=O)[O-])c4)c(Oc4cnc5[nH]ccc5c4)c3)CC2)=C(c2ccc(Cl)cc2)C1` [Venetoclax, venetoclax], the “combination index (CI) of AML drug” value is “CI = 0.7” in the series with MV-4-11 cells (FLT3-ITD); 0.7 with MV-4-11 cells (FLT3-ITD) (listed as venetoclax); “CI = 0.3” in the series on MOLM-13 cells (FLT3-ITD); 0.3 in the series with MOLM-13 cells (FLT3-ITD) (listed as venetoclax); “CI = 0.6” in the series with MOLM-14 cells (FLT3-ITD).

A word on the EC50: it is the midpoint of the concentration-response curve. In the case of `CC1(COc2ccc3c(c2)ncn3-c2ccc3cccc(N4CCC(N)CC4)c3n2)COC1` [crenolanib], the EC50 worked out at 9 nM in the series on MOLM-13-LUC cells; 4 nM in series [3]; 25 nM in series [4] (Homo sapiens, MOLM-13-R-PKC412, 72 hours); 90 nM in [5] (Mus musculus, BaF3 FLT3-ITD-F691L, 72 hours). The “combination index (CI) of AML drug” value with MV-4-11 cells (FLT3-ITD) is “CI = 0.7”; with MOLM-13 cells (FLT3-ITD), “CI = 0.9”. Also, the “fold difference in EC50, midostaurin-resistant vs control cells” value in [4] (MOLM-13-R-PKC412 vs MOLM-13-LUC) is reported as “approximately 3 fold”. Moreover, the IC50 is 3 nM with MOLM-14 cells (FLT3-ITD) (MOLM-14, non-stromal media) and greater than 100 nM in the series with MOLM-14 cells (FLT3-ITD) (setting [10]). Further, the “fold resistance, FLT3-ITD-F691L vs FLT3-ITD” value in series [5] (BaF3, 72 hours) was “approximately 23 fold”.

Take `CCc1nc(C(N)=O)c(Nc2ccc(N3CCC(N4CCN(C)CC4)CC3)c(OC)c2)nc1NC1CCOCC1` [gilteritinib]: in the series on MOLM-13 cells (FLT3-ITD), the “combination index (CI) of AML drug” value is recorded as “CI = 0.9”. In addition, the IC50 in the series on MOLM-14 cells (FLT3-ITD) (MOLM-14, non-stromal media) was 6 nM; with MOLM-14 cells (FLT3-ITD) (setting [10]), greater than 100 nM.

For “arsenic trioxide [ATO, reference compound]”, the pERK level entry in [6] is given as “mildly reduced”. Also, the “FLT3 level (cell surface)” value in series [7] is listed as “reduced”. Moreover, in series [8], the pS6 level result is recorded as “reduced”.

Turning to atezolizulmab: PD-L1 blocking antibody, the “T cell activation (luciferase)” value in series [9] was “restores T cell activation to untreated levels”.
